{"source": "patent US9335538B2", "about": "“Electrowetting display device and dye composition for electrowetting display” (FUJIFILM CORPORATION, priority 2012, dated 2016)", "format_in_all_cases": "physicochemical", "key": {"[1]": {"experiment": "Solubility with respect to hexane", "experimental": "(3) Solubility with Respect to Hexane\nThe solubility of each methine dye with respect to normal hexane (n-hexane) which is a nonpolar solvent was measured in a manner as described below.\nThe dye was dissolved in normal hexane heated to 50° C. to prepare a saturated solution. Thereafter, the saturated solution thus obtained was left for one hour under an environment of 25° C. and 0.1 MPa."}, "[2]": {"experiment": "Hue of colored solution, visual observation", "conditions": "0.01% by mass normal decane solution, visually observed", "experimental": "(§1) A methine dye (the above-described exemplary compounds 5, 15, and 23 shown in Table 1 below were prepared) and normal decane (n-decane) which is an organic solvent were mixed. In this way, three kinds of 0.01% by mass normal decane solutions (colored compositions) each colored with a methine dye were prepared.\n(§2) With regard to each of the colored solutions thus prepared, the hue, absorption maximum wavelength (λmax), absorbance (abs), and absorption coefficient (∈) were measured and evaluated according to the methods described below. Further, with regard to each of the dyes described below, the solubility (% by mass) with respect to normal hexane (n-hexane) was measured and evaluated according to the method described below.\n(1) Hue Each of the colored solutions (colored compositions) was visually observed, and the hue thereof was judged."}, "[3]": {"experiment": "Absorption maximum wavelength, absorbance and absorption coefficient of colored solution (visible absorptiometer)", "conditions": "0.01% by mass normal decane solution", "experimental": "as §1, §2\n(2) Absorption Maximum Wavelength, Absorbance, and Absorption Coefficient\nWith regard to the colored solutions (colored compositions), the absorption maximum wavelength (λmax) and the absorbance were measured using a visible absorptiometer (trade name: UV-1800PC, manufactured by Shimadzu Corp.), and the absorption coefficient (∈) was calculated based on the Lambert-Beer law."}}, "data": [{"molecule": "CCCCCCC(Oc1ccc(C(C)(C)CC)cc1C(C)(C)CC)C(=O)NCC(C)c1nc2/c(=C\\c3c(C)nn4nc(C(C)CNC(=O)C(CCCCCC)Oc5ccc(C(C)(C)CC)cc5C(C)(C)CC)[nH]c34)c(C)nn2n1", "note": "(stereo not drawn) [Exemplary compound 5]", "values": [{"measurement": "solubility with respect to hexane (in words)", "setting": "[1]; hexane, a hydrocarbon solvent", "value": "high solubility"}, {"measurement": "Solubility in hexane (%)", "setting": "[1]; n-hexane, 25° C. and 0.1 MPa, % by mass", "value": "40 or more %"}, {"measurement": "Color of solution", "setting": "[2]", "value": "yellow"}, {"measurement": "Absorbance (abs)", "setting": "[3]", "value": 0.525}, {"measurement": "Absorption maximum wavelength (λmax)", "setting": "[3]", "value": 441, "unit": "nm"}, {"measurement": "Absorption coefficient (ε)", "setting": "[3]; calculated based on the Lambert-Beer law", "value": "3.20 × 10^4"}]}]}
